Where two headings read alike, the source gives them in different places.

One test addresses human orexin-2 receptor (Homo sapiens (Human), UniProt O43614). Description: Intracellular calcium measurement (FLIPR), CHO cells expressing human orexin-2 receptor, 3 nM orexin-A. In kind it is cell-based. The settings on record: read-out: IC50 OX2. Summed up:
(§1)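 Antagonist is added 120 min before agonist. Fluo-4 AM-loaded CHO cells carry human orexin-1 or orexin-2 receptor, and calcium is read by FLIPR.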

In a further test the target is orexin-1 (Homo sapiens (Human), UniProt O43613). Description: Intracellular calcium measurement (FLIPR), CHO cells expressing human orexin-1 receptor, 3 nM orexin-A. In kind it is cell-based. The settings on record: read-out: IC50 OX1. Summed up: as §1
orexin-1, sequence (O43613 whole entry): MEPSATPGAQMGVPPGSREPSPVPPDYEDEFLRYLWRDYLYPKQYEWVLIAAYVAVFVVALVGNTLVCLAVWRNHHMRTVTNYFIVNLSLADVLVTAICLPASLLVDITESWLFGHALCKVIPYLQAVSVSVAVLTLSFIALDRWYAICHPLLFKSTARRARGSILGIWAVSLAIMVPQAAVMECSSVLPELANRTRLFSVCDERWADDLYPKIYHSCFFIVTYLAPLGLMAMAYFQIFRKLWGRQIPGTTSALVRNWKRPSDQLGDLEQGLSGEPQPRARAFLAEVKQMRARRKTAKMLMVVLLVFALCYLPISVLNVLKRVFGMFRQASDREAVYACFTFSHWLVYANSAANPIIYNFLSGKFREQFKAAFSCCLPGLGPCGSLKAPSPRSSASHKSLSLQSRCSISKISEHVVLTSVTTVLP
Background: Calcium flux is commonly read through the fluorescence of an indicator in the cells.

Where [1] appears, read: CHO cells expressing human orexin-2 receptor, FLIPR, 3 nM orexin-A, geometric mean if determined several times.
The mark [2] stands for this setting: CHO cells expressing human orexin-1 receptor, FLIPR, 3 nM orexin-A, geometric mean if determined several times.

human orexin-2 receptor, sequence (O43614 whole entry): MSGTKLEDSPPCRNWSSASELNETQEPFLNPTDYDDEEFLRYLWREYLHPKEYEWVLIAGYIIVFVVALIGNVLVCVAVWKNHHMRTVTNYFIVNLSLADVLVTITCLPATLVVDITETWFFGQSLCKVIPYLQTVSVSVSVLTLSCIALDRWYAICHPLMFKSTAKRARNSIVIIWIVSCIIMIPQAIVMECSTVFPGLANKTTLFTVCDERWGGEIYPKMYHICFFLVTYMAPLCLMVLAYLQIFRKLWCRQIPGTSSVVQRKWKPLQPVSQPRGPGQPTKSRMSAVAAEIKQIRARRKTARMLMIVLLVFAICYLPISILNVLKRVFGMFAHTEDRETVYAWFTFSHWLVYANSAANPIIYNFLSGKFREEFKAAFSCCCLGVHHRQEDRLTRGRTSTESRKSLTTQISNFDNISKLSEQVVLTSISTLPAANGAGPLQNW

As for `Cc1ccc(-n2nccn2)c(C(=O)N2CCC[C@H]2c2nc(-c3ccnc4[nH]ccc34)no2)c1` [compound 75, (5-Methyl-2-[1,2,3]triazol-2-yl-phenyl)-{(S)-2-[3-(1H-pyrrolo[2,3-b]pyridin-4-yl)-[1,2,4]oxadiazol-5-yl]-pyrrolidin-1-yl}-methanone], the IC50 (in general, the concentration at which inhibition is half-maximal) on human orexin-2 receptor (setting [1]) came to 261 nM; on orexin-1 (setting [2]), 1570 nM.
In the case of `Cc1ccc(-n2nccn2)c(C(=O)N2CCC[C@H]2c2nc(-c3c(C)cccc3F)no2)c1` [compound 76, {(S)-2-[3-(2-Fluoro-6-methyl-phenyl)-[1,2,4]oxadiazol-5-yl]-pyrrolidin-1-yl}-(5-methyl-2-[1,2,3]triazol-2-yl-phenyl)-methanone], the IC50 amounted to 40 nM at human orexin-2 receptor (setting [1]) and 901 nM on orexin-1 (setting [2]).
The like results for `Cc1ccc(-n2nccn2)c(C(=O)N2CCC[C@H]2c2nc(-c3cccc4ccn(C)c34)no2)c1` [compound 77, {(S)-2-[3-(1-Methyl-1H-indol-7-yl)-[1,2,4]oxadiazol-5-yl]-pyrrolidin-1-yl}-(5-methyl-2-[1,2,3]triazol-2-yl-phenyl)-methanone] were, in that order, 8 nM and 52 nM.
Taken in the same sequence, the figures for `Cc1ccc(-n2nccn2)c(C(=O)N2CCC[C@H]2c2nc(-c3cccnc3C)no2)c1` [compound 78, {(S)-2-[3-(2-Methyl-pyridin-3-yl)-[1,2,4]oxadiazol-5-yl]-pyrrolidin-1-yl}-(5-methyl-2-[1,2,3]triazol-2-yl-phenyl)-methanone] were 29 nM and 2290 nM.
Taken in the same sequence, the figures for `Cc1ccc(-n2nccn2)c(C(=O)N2CCC[C@H]2c2nc(-c3c[nH]c4cccc(C)c34)no2)c1` [compound 79, {(S)-2-[3-(4-Methyl-1H-indol-3-yl)-[1,2,4]oxadiazol-5-yl]-pyrrolidin-1-yl}-(5-methyl-2-[1,2,3]triazol-2-yl-phenyl)-methanone] were 1070 nM and 2750 nM.
`Cc1ccc(-n2nccn2)c(C(=O)N2CCC[C@H]2c2nc(-c3ccc(C)c(C)c3)no2)c1` [compound 80, {(S)-2-[3-(3,4-Dimethyl-phenyl)-[1,2,4]oxadiazol-5-yl]-pyrrolidin-1-yl}-(5-methyl-2-[1,2,3]triazol-2-yl-phenyl)-methanone]: the figures for the IC50 on human orexin-2 receptor (setting [1]) and on orexin-1 (setting [2]) were 16 nM and 252 nM, respectively.
The like results for `Cc1ccc(-c2noc([C@@H]3CCCN3C(=O)c3cc(C)ccc3-n3nccn3)n2)c(C)c1` [compound 81, {(S)-2-[3-(2,4-Dimethyl-phenyl)-[1,2,4]oxadiazol-5-yl]-pyrrolidin-1-yl}-(5-methyl-2-[1,2,3]triazol-2-yl-phenyl)-methanone] were, in that order, 19 nM and 309 nM.
Taken in the same sequence, the figures for `COc1ccc(-c2noc([C@@H]3CCCN3C(=O)c3cc(C)ccc3-n3nccn3)n2)cc1OC` [compound 82, {(S)-2-[3-(3,4-Dimethoxy-phenyl)-[1,2,4]oxadiazol-5-yl]-pyrrolidin-1-yl}-(5-methyl-2-[1,2,3]triazol-2-yl-phenyl)-methanone] were 131 nM and 874 nM.
As for `Cc1ccc(-n2nccn2)c(C(=O)N2CCC[C@H]2c2nc(-c3ncccc3C)no2)c1` [compound 83, {(S)-2-[3-(3-Methyl-pyridin-2-yl)-[1,2,4]oxadiazol-5-yl]-pyrrolidin-1-yl}-(5-methyl-2-[1,2,3]triazol-2-yl-phenyl)-methanone], the IC50 on human orexin-2 receptor (setting [1]) was found to be 302 nM; on orexin-1 (setting [2]), 3470 nM.
The like results for `Cc1ccc(-n2nccn2)c(C(=O)N2CCC[C@H]2c2nc(-c3cc(C)ccc3C)no2)c1` [compound 84, {(S)-2-[3-(2,5-Dimethyl-phenyl)-[1,2,4]oxadiazol-5-yl]-pyrrolidin-1-yl}-(5-methyl-2-[1,2,3]triazol-2-yl-phenyl)-methanone] were, in that order, 8 nM and 63 nM.
`Cc1ccc(-c2ccccc2)c(C(=O)N2CCC[C@H]2c2nc(-c3cccc(Cl)c3C)no2)c1` [compound 88]: the IC50 on human orexin-2 receptor (setting [1]) turned out to be 11 nM; on orexin-1 (setting [2]), 49 nM.
With `Cc1ccc(-n2cccn2)c(C(=O)N2CCC[C@H]2c2nc(-c3cccc(Cl)c3C)no2)c1` [compound 89], the IC50 on human orexin-2 receptor (setting [1]) stood at 14 nM; on orexin-1 (setting [2]) it was 97 nM.
On to `Cc1ccc(-c2ccccn2)c(C(=O)N2CCC[C@H]2c2nc(-c3cccc(Cl)c3C)no2)c1` [compound 90], for which the IC50 at human orexin-2 receptor (setting [1]) is 25 nM; on orexin-1 (setting [2]), 137 nM.
The like results for `Cc1cccc(-c2oc(C)nc2C(=O)N2CCC[C@H]2c2nc(-c3cccc(Cl)c3C)no2)c1` [compound 91] were, in that order, 91 nM and 104 nM.
Taken in the same sequence, the figures for `Cc1cccc(-c2ocnc2C(=O)N2CCC[C@H]2c2nc(-c3cccc(Cl)c3C)no2)c1` [compound 92] were 53 nM and 120 nM.
For the molecule `Cc1c(Cl)cccc1-c1noc([C@@H]2CCCN2C(=O)c2ccccc2-n2nccn2)n1` [compound 93], the half-maximal inhibitory concentration (IC50) on human orexin-2 receptor (setting [1]) worked out at 28 nM; on orexin-1 (setting [2]), 399 nM.
With `Cc1c(Cl)cccc1-c1noc([C@@H]2CCCN2C(=O)c2ncsc2-c2cccc(Cl)c2)n1` [compound 94], the figures for the IC50 on human orexin-2 receptor (setting [1]) and at orexin-1 (setting [2]) were 201 nM and 237 nM, respectively.
Taken in the same sequence, the figures for `Cc1ccc(C(=O)N2CCC[C@H]2c2nc(-c3cccc(Cl)c3C)no2)c(-n2nccn2)c1` [compound 96] were 12 nM and 109 nM.
The like results for `Cc1c(Cl)cccc1-c1noc([C@@H]2CCCN2C(=O)c2cc(C(F)(F)F)ccc2-n2nccn2)n1` [compound 97] were, in that order, 194 nM and 568 nM.
Regarding `Cc1cccc(-n2nccn2)c1C(=O)N1CCC[C@H]1c1nc(-c2cccc(Cl)c2C)no1` [compound 98], the IC50 at human orexin-2 receptor (setting [1]) was 127 nM; at orexin-1 (setting [2]) it was 462 nM.
On to `Cc1c(Cl)cccc1-c1noc([C@@H]2CCCN2C(=O)c2cc(OC(F)(F)F)ccc2-n2nccn2)n1` [compound 99], for which the IC50 is 614 nM at human orexin-2 receptor (setting [1]) and 895 nM on orexin-1.
Taken in the same sequence, the figures for `COc1ccc(-n2nccn2)c(C(=O)N2CCC[C@H]2c2nc(-c3cccc(Cl)c3C)no2)c1` [compound 100] were 8 nM and 92 nM.
Turning to `COc1ccc(-c2ccccc2)c(C(=O)N2CCC[C@H]2c2nc(-c3cccc(Cl)c3C)no2)c1` [compound 101, {(S)-2-[3-(3-Chloro-2-methyl-phenyl)-[1,2,4]oxadiazol-5-yl]-pyrrolidin-1-yl}-(4-methoxy-biphenyl-2-yl)-methanone], the IC50 at human orexin-2 receptor (setting [1]) came to 6 nM; at orexin-1 (setting [2]) it was 9 nM.
The like results for `COc1cc(C(=O)N2CCC[C@H]2c2nc(-c3cccc(Cl)c3C)no2)c(-n2nccn2)cc1C` [compound 103] were, in that order, 2 nM and 30 nM.
On to `Cc1c(Cl)cccc1-c1noc([C@@H]2CCCN2C(=O)c2cc(F)ccc2-n2nccn2)n1` [compound 104], for which the IC50 at human orexin-2 receptor was 38 nM; at orexin-1 (setting [2]), 1030 nM.
Consider `COc1cc(C(=O)N2CCC[C@H]2c2nc(-c3cccc(Cl)c3C)no2)c(-n2cccn2)cc1C` [compound 105], for which the values for the IC50 on human orexin-2 receptor (setting [1]) and at orexin-1 were 8 nM and 133 nM, respectively.
With `COc1ccc(-n2cccn2)c(C(=O)N2CCC[C@H]2c2nc(-c3cccc(Cl)c3C)no2)c1` [compound 106], the results for the IC50 at human orexin-2 receptor (setting [1]) and on orexin-1 (setting [2]) were 28 nM and 327 nM, respectively.
The like results for `Cc1c(Cl)cccc1-c1noc([C@@H]2CCCN2C(=O)c2cccnc2-c2ccccn2)n1` [compound 107] were, in that order, 79 nM and 1040 nM.
Turning to `Cc1ccc(-n2cccn2)c(C(=O)N2CCC[C@H]2c2nc(-c3cccc(Cl)c3C)no2)n1` [compound 109], the IC50 stood at 199 nM on human orexin-2 receptor and 976 nM at orexin-1.
Consider `Cc1c(Cl)cccc1-c1noc([C@@H]2CCCN2C(=O)c2cc(F)c(F)cc2-n2nccn2)n1` [compound 110], for which the IC50 came to 159 nM on human orexin-2 receptor (setting [1]) and 1690 nM at orexin-1 (setting [2]).
The like results for `Cc1c(Cl)cccc1-c1noc([C@@H]2CCCN2C(=O)c2ccc(F)cc2-n2cccn2)n1` [compound 111] were, in that order, 261 nM and 1150 nM.
Turning to `Cc1c(Cl)cccc1-c1noc([C@@H]2CCCN2C(=O)c2ccc(F)cc2-n2nccn2)n1` [compound 112], the results for the IC50 at human orexin-2 receptor and on orexin-1 (setting [2]) were 121 nM and 833 nM, respectively.
For `Cc1c(Cl)cccc1-c1noc([C@@H]2CCCN2C(=O)c2cccc(F)c2-n2cccn2)n1` [compound 113], the IC50 is 146 nM at human orexin-2 receptor (setting [1]) and 1200 nM at orexin-1 (setting [2]).
As for `Cc1c(Cl)cccc1-c1noc([C@@H]2CCCN2C(=O)c2cccc(F)c2-n2nccn2)n1` [compound 114], the figures for the IC50 at human orexin-2 receptor and on orexin-1 were 83 nM and 1080 nM, respectively.
`Cc1cc(C(=O)N2CCC[C@H]2c2nc(-c3cccc(Cl)c3C)no2)c(-n2cccn2)cc1C` [compound 115]: the IC50 at human orexin-2 receptor (setting [1]) amounted to 6 nM; on orexin-1 (setting [2]), 78 nM.
Taken in the same sequence, the figures for `Cc1c(Cl)cccc1-c1noc([C@@H]2CCCN2C(=O)c2cc(F)ccc2-c2ccn[nH]2)n1` [compound 116] were 34 nM and 457 nM.
With `Cc1c(Cl)cccc1-c1noc([C@@H]2CCCN2C(=O)c2cccc(F)c2-c2ccn[nH]2)n1` [compound 117], the values for the IC50 at human orexin-2 receptor (setting [1]) and on orexin-1 were 5 nM and 211 nM, respectively.
In the case of `COc1ccc(C(=O)N2CCC[C@H]2c2nc(-c3cccc(Cl)c3C)no2)c(-n2nccn2)c1` [compound 118], the figures for the IC50 on human orexin-2 receptor and at orexin-1 were 48 nM and 260 nM, respectively.
`Cc1cc(C)c(-n2nccn2)c(C(=O)N2CCC[C@H]2c2nc(-c3cccc(Cl)c3C)no2)c1` [compound 119]: the values for the IC50 on human orexin-2 receptor and at orexin-1 (setting [2]) were 24 nM and 188 nM, respectively.
Taken in the same sequence, the figures for `Cc1c(Cl)cccc1-c1noc([C@@H]2CCCN2C(=O)c2ccccc2-c2ncco2)n1` [compound 120] were 37 nM and 483 nM.
As to `Cc1c(Cl)cccc1-c1noc([C@@H]2CCCN2C(=O)c2ccc(Cl)cc2-n2nccn2)n1` [compound 121], the figures for the IC50 on human orexin-2 receptor (setting [1]) and on orexin-1 were 15 nM and 145 nM, respectively.

These data come from patent US9493446B2, “Orexin receptor antagonists which are [ortho bi-(hetero-)aryl]-[2-(meta bi-(hetero-)aryl)-pyrrolidin-1-yl]-methanone derivatives” (Actelion Pharmaceuticals Ltd, priority 2012, dated 2016).
